# Source: patent publication US20140031434A1, “Use of Patchouli Alcohol in Preparation of Drug Against Helicobacter Pylori” (priority 2011, published 2014)
# Marks after values point to notes of the source that are not given here.
# Legend:
# Helicobacter pylori [1] = assay: In vivo anti-Helicobacter pylori effect, Hp infection model, rapid urease test of pyloric antrum tissue; design: species or system BALB/c mice; settings: 1 time per day for 8 weeks
# Protocol: (§1) Take SPF (specific pathogen free) BALB/c mice, equal numbers of male and female, each weight 18˜20 g; divide randomly into three groups, which are normal control group, model control group and triple therapy group. Give the corresponding experimental drugs according to table 1 below. Hp infection model is prepared by using antibiotics and oral gavage of Hp. Day 1, oral gavage 0.5 ml/mouse antibiotics mixture (0.25 ml ampicillin (20 mg/ml), 0.15 ml gentamicin (4 mg/ml), 0.1 ml azithromycin (50 mg/ml)) for three consecutive days for all testing animals, use equal volume of physiological saline for normal control group; starting from day 4, water fasting for 12 hours, oral gavage freshly prepared Hp suspended solution (0.5 ml/mouse/day, concentration 10^8 CFU/ml) for seven consecutive days, use equal volume of physiological saline for normal control group. Starting from day 11, oral gavage testing drug to the testing animals (use equal volume of physiological saline for normal control group), 1 time per day for 8 consecutive weeks. After the last drug administration, fasting for 24 hours. Take serum sample by orbital bleeding and centrifugation. Test for Helicobacter pylori urease antibody (according to the instruction of the instrument); sacrifice mice, tissue from pyloric antrum is first taken for rapid urease test and then observe for 3 minutes, and determine the test results in which strong positive refers to color change at peripheral portion from yellow to red within 1 minute, weak positive refers to color change within 3 minutes, and negative refers to no color change; the remaining stomach tissue is fixed in 10% formalin, then embed and cutting for carbol-fuchsin test, observe the Hp infection condition of the gastric mucosa and determine the condition.
# in vivo [2] = settings: orogastric gavage; for LD50 at 14 days: both, KM, mouse, in vivo, po, Bliss method
# Protocol: (§2) 1.3 Testing animal: KM mice, SPF grade, weight 18-22 g, equal numbers of male and female, obtained from Animal Laboratory Center of Guangzhou University of Chinese Medicine, Certificate number: SCXK (Yue) 2008-0020.
# (§3) 2.1 Preparation of drug solution: weight a predetermined quantity of patchouli alcohol and put it into a beaker, add suitable amount of peanut oil into the beaker as solvent, mix while heating until the patchouli alcohol is dissolved. Cool under room condition and then add peanut oil to the predetermined amount to obtain the patchouli alcohol solution.
# (§4) 2.2 Animal grouping: Take 200 mice, weight between 18˜22 g, divided by weight and randomly divided into 4 groups, namely: orogastric gavage drug group, orogastric gavage control group (equal volume of peanut oil is used), intraperitoneal injection drug group, Intraperitoneal injection control group (equal volume of peanut oil is used), each group includes 50 mice, equal numbers of male and female, raise for one week before experiment for the mice to adapt to the environment, water fasting for 24 hours before experiment.
# Set the initial dose at 7.90 g/kg, at a ratio of 1:0.75 divide 5 groups, each group includes 10 mice, equal numbers of male and female, give patchouli alcohol solution to mice once by orogastric gavage according to the dosage at 2.5 g/kg, 3.33 g/kg, 4.44 g/kg, 5.93 g/kg, 7.90 g/kg for each group. Observe consecutively for 14 days, record toxicity reaction and lethal rate every day, and calculate the medium lethal dose (LD50) by Bliss method.
# [3] = tested on: Streptococcus pneumoniae (31001); assay: Selective inhibitory effect, in vitro MIC (broth dilution, turbidity); type: cell-based; settings: 10% inactivated rabbit serum added, 37° C., 18 hours, read-out: In vitro Minimum Inhibitory Concentration MIC
# Source text: (§5) Strains: Lactobacillus acidophilus, E. coli, Staphylococcus epidermidis, yeast, thermophilic Bifidobacterium, Staphylococcus aureus (26112), Alpha-Hemolytic Streptococcus (32209), Shigella (32013), Streptococcus pneumoniae (31001), Catarrhal, Corynebacterium diphtheriae (38101), Escherichia coli (44113), Pseudomonas aeruginosa (10211), Salmonella Typhi and Candida albicans (98001), Catarrhal is isolated from specimen collected from the throat in the bacterial laboratory, Candida albicans is donated by Guangzhou Institute for Food and Drug Control, all other strains are provided by Beijing Institute for Food and Drug Control; Trichophyton gypseum (4097), Trichophyton cerebriforme, Trichophyton tonsurans, Microsporum gypseum, Microsporum lanosum, Epidermophyton floccosum (previously known as Trichophyton floccosum) and Trichophyton rubrum are donated by Shanghai Huashan Hospital.
# (§6) 3. Culture medium: nutrient broth, 1% dextrose broth, 1% serum broth, Sabouraud agar plate, prepared by conventional preparation method.
# (§7) Drug preparation: Use nutrient broth to prepare a series of 14 drug solution in which the content of drug per ml are, 0.1 g, 0.05 g, 0.025 g . . . 1.22×10^−5 g respectively and the total volume of each test tube is 1 ml, and sterile by steam sterilization. […]
# [4] = cited from earlier work
# in vivo [5] = settings: for LD50 at 14 days: both, KM, mouse, in vivo, Bliss method
# Protocol: as §2, §3, §4
# Set the initial dose at 6.32 g/kg, at a ratio of 1:0.75 divide 5 groups, each group includes 10 mice, equal numbers of male and female, give patchouli alcohol solution to each of the mice once by intraperitoneal injection according to the dosage at 2.0 g/kg, 2.67 g/kg, 3.56 g/kg, 4.70 g/kg, 6.32 g/kg for each group. Observe consecutively for 14 days, record toxicity reaction and lethal rate every day, and calculate the medium lethal dose (LD50) by Bliss method.
# Helicobacter pylori [6] = assay: In vivo anti-Helicobacter pylori effect, Hp infection model, carbol-fuchsin staining of stomach tissue; design: species or system BALB/c mice
# Protocol: as §1
# Histopathological findings: after staining stomach tissue by carbol-fuchsin method, the Hp become […] in color, have a curved or rod shape, and mainly locate in gastric pit surface and mucus.
# Helicobacter pylori [7] = assay: In vivo anti-Helicobacter pylori effect, Hp infection model, serum urease antibody to Helicobacter pylori; design: species or system BALB/c mice; settings: 1 time per day for 8 weeks
# Protocol: as §1
# [8] = tested on: Helicobacter pylori (Hp) ATCC43504; assay: In vitro anti-Helicobacter pylori effect, minimum inhibitory concentration (filter paper on Columbia Blood Agar Plate); type: cell-based; settings: Helicobacter pylori ATCC43504, 37° C. micro-aerobic, 72 hours
# Candida albicans (98001) = assay: Selective inhibitory effect, in vitro MIC (broth dilution, turbidity); type: cell-based; settings: 48 h, read-out: In vitro Minimum Inhibitory Concentration MIC
# Source text: as §5, §6, §7
# Trichophyton rubrum = assay: Selective inhibitory effect, in vitro MIC; type: cell-based; settings: read-out: In vitro Minimum Inhibitory Concentration MIC
# Source text: as §5, §6
# (§8) Drug preparation: Use nutrient broth to prepare a series of 14 drug solution in which the content of drug per ml are, 0.1 g, 0.05 g, 0.025 g . . . 1.22×10^−5 g respectively and the total volume of each test tube is 1 ml, and sterile by steam sterilization. For Streptococcus testing, 1% glucose is added to the sterile drug solution, for Streptococcus pneumoniae and Corynebacterium diphtheria, 10% inactivated rabbit serum is added, and for Candida albicans, the drug solution is prepared by using Sabouraud broth.
# (§9) Control: for strain control, testing bacteria is added to non-drug culture media; for drug control, no bacteria is added to the drug solution.
# (§10) For each drug solution at different concentration and for bacteria control, add 1 ml of 1:2000 testing bacteria solution (8 hours cultured substance) to each tube, incubate bacteria culture at 37° C. for 18 hours and observe the results. For Candida albicans, 24 hours cultured substance is used, and incubate bacteria culture at 28° C. for 48 hours after bacteria is added to the drug solution and then observe the results. Turbidity is the indicator and visually observe each tube to determine if there is any bacterial growth.
# (§11) Determine minimum inhibitory concentration (MIC): MIC is the lowest concentration of an antimicrobial that will inhibit the visible growth of a microorganism.
# Trichophyton tonsurans = assay: Selective inhibitory effect, in vitro MIC; type: cell-based; settings: read-out: In vitro Minimum Inhibitory Concentration MIC
# Source text: as §5, §6, §8, §9, §10, §11
# Epidermophyton floccosum = assay: Selective inhibitory effect, in vitro MIC; type: cell-based; settings: read-out: In vitro Minimum Inhibitory Concentration MIC
# Source text: as §5, §6, §8, §9, §10, §11
# [9] = tested on: Trichophyton cerebriforme; assay: Selective inhibitory effect, in vitro MIC; type: cell-based; settings: read-out: In vitro Minimum Inhibitory Concentration MIC
# Source text: as §5, §6, §8, §9, §10, §11
# Microsporum gypseum = assay: Selective inhibitory effect, in vitro MIC; type: cell-based; settings: Nannizzia gypsea, read-out: In vitro Minimum Inhibitory Concentration MIC
# Source text: as §5, §6, §8, §9, §10, §11
# Microsporum lanosum = assay: Selective inhibitory effect, in vitro MIC; type: cell-based; settings: read-out: In vitro Minimum Inhibitory Concentration MIC
# Source text: as §5, §6, §8, §9, §10, §11
# [10] = tested on: Trichophyton gypseum (4097); assay: Selective inhibitory effect, in vitro MIC; type: cell-based; settings: Nannizzia gypsea, read-out: In vitro Minimum Inhibitory Concentration MIC
# Source text: as §5, §6, §8, §9, §10, §11
# [11] = High Dose 40 mg/kg oral gavage, 10 animals
# [12] = Low Dose 10 mg/kg oral gavage, 11 animals
# [13] = Medium Dose 20 mg/kg oral gavage, 11 animals
# [14] = mice, intraperitoneal injection
# [15] = mice, intraperitoneal injection, pre-test
# [16] = 10 mg/kg oral gavage, 11 animals
# [17] = 20 mg/kg oral gavage, 11 animals
# [18] = 40 mg/kg oral gavage, 10 animals
smiles,measurement,setting,value
"C[C@H]1CC[C@@]2(O)C(C)(C)[C@@H]3CC[C@@]2(C)[C@H]1C3 [Patchouli Alcohol, (1R,4S,4aS,6R,8aS)-4,a,9,9-tetramethyloctahydro-1,6-methanonaphthalen-1(2H)-ol]",Strong positive (count),Helicobacter pylori [1]; [11],2 count
same,Total Positive Rate (%),Helicobacter pylori [1]; [11],40.00%
same,Weak positive (count),Helicobacter pylori [1]; [11],2 count
same,Strong positive (count),Helicobacter pylori [1]; [12],0 count
same,Total Positive Rate (%),Helicobacter pylori [1]; [12],36.36%
same,Weak positive (count),Helicobacter pylori [1]; [12],4 count
same,Strong positive (count),Helicobacter pylori [1]; [13],0 count
same,Total Positive Rate (%),Helicobacter pylori [1]; [13],27.27* %
same,Weak positive (count),Helicobacter pylori [1]; [13],3 count
same,LD50 at 14 days,"in vivo [2]; LD50 95% confidence interval lower limit, mice",4040 mg/kg
same,LD50 at 14 days,"in vivo [2]; LD50 95% confidence interval upper limit, mice",5500 mg/kg
same,LD50 at 14 days,"in vivo [2]; LD50, mice, peanut oil solution",4690 mg/kg
same,autopsy of the dead mice,in vivo [2]; mice,no obvious abnormality is found in major organs
same,time at which death usually occurs,in vivo [2]; mice,6˜12 hours
same,maximum lethal dose,"in vivo [2]; mice, pre-test",7900 mg/kg
same,minimum lethal dose,"in vivo [2]; mice, pre-test",2500 mg/kg
same,MIC,[3],510 µg/mL
same,solubility in ethanol and ether and common organic solvent,"[4]; ethanol, ether, common organic solvent",soluble
same,solubility in water,[4]; water,insoluble
same,LD50 at 14 days,"in vivo [5]; LD50, mice, intraperitoneal acute toxicity (sentence prints orogastric gavage), peanut oil solution",3140 mg/kg
same,LD50 at 14 days,"in vivo [5]; ip, LD50 95% confidence interval lower limit, mice, intraperitoneal acute toxicity",2660 mg/kg
same,LD50 at 14 days,"in vivo [5]; ip, LD50 95% confidence interval upper limit, mice, intraperitoneal acute toxicity",3680 mg/kg
same,autopsy of the dead mice,in vivo [5]; [14],no obvious abnormality is found in major organs
same,time at which death usually occurs,in vivo [5]; [14],6˜12 hours
same,maximum lethal dose,in vivo [5]; [15],6320 mg/kg
same,minimum lethal dose,in vivo [5]; [15],2000 mg/kg
same,animals with blue Hp found in the gastric pit (positive/total),Helicobacter pylori [6]; high dose group,6/11
same,infection rate,Helicobacter pylori [6]; high dose group,60%
same,animals with blue Hp found in the gastric pit and the mucosal surface (positive/total),Helicobacter pylori [6]; low dose group,9/11
same,infection rate,Helicobacter pylori [6]; low dose group,81.81%
same,animals with blue Hp found in the gastric pit (positive/total),Helicobacter pylori [6]; medium dose group,7/11
same,infection rate,Helicobacter pylori [6]; medium dose group,63.63%
same,Positive (Count),Helicobacter pylori [7]; [16],0 Count
same,Positive rate (%),Helicobacter pylori [7]; [16],0.00** %
same,Positive (Count),Helicobacter pylori [7]; [17],0 Count
same,Positive rate (%),Helicobacter pylori [7]; [17],0.00** %
same,Positive (Count),Helicobacter pylori [7]; [18],0 Count
same,Positive rate (%),Helicobacter pylori [7]; [18],0.00** %
same,MIC (minimum inhibitory concentration),[8],78 µg/mL
"CC1(C)S[C@@H]2[C@H](NC(=O)[C@H](N)c3ccc(O)cc3)C(=O)N2[C@H]1C(=O)O [Amoxicillin, reference compound]",MIC (minimum inhibitory concentration),[8],120 µg/mL
CC(=O)N1CCN(c2ccc(OCC3COC(Cn4ccnc4)(c4ccc(Cl)cc4Cl)O3)cc2)CC1 (stereo not drawn) [Ketoconazole],MIC,Candida albicans (98001),12200 µg/mL
same,MIC,Trichophyton rubrum,24400 µg/mL
same,MIC,Trichophyton tonsurans,49000 µg/mL
same,MIC,Epidermophyton floccosum,383 µg/mL
same,MIC,[9],383 µg/mL
same,MIC,Microsporum gypseum,383 µg/mL
same,MIC,Microsporum lanosum,24500 µg/mL
same,MIC,[10],383 µg/mL
